Source: article PMC7738869, “A novel STAT3 inhibitor W2014-S regresses human non-small cell lung cancer xenografts and sensitizes EGFR-TKI acquired resistance” (Theranostics, 2021)

Assays:
A549 cells [1] = assay: Cell apoptosis assay (Annexin V-FITC/PI flow cytometry), A549; format: cell-based, human; conditions: A549, 1.0 μM, 72 h
Description: (§1) Briefly, aliquots of 2 × 10^5 cells were seeded into 6-well plates and incubated for 24 h at 37 °C. […] After trypsinization and gently washing cells once with medium, the cells were washed twice with cold PBS. The precipitation was resuspended by 400 μL of 1 × binding buffer, and then resuspended cells were transferred into new 1.5 mL EP tubes. Then 3 μL of Annexin V-FITC and 5 μL of propidium iodide were added to the resuspended cells with further incubation at room temperature for 15 min in the dark. The analysis was done on Guava easyCyte (USA) and FlowJo 7.6 software.

[2] = tested on: pY705-STAT3 and pY1068-EGFR; assay: Western blot of pY705-STAT3 and pY1068-EGFR in PC-9/GR cells; format: cell-based, human; conditions: W2014-S 1 μM and/or gefitinib 2 μM, 24 h
Description: Cells or tumor tissue were lysed with RIPA buffer (Beyotime, Shanghai, China) supplemented with protease inhibitors (Beyotime, Shanghai, China) and phosphatase inhibitors (Bimake, USA). Lysates were denatured by heating for 5 min at 99 °C and loaded on 4-10% SDS-polyacrylamide gel electrophoresis. Then the proteins were transferred to polyvinylidene fluoride (PVDF) membranes (Millipore, USA). The membranes were blocked and probed with primary antibodies and secondary HPR-conjugated antibodies. At last the membranes were detected by chemiluminescence (Tanon, Shanghai, China). […] Cells were lysed with IP RIPA buffer (Beyotime, Shanghai, China) supplemented with protease inhibitors (Beyotime, Shanghai, China) and phosphatase inhibitors (Bimake, America), and lysates were cultured with Anti-flag Affinity Gel (B23102, Bimake, USA) overnight at 4 ℃. The gel was washed by PBST for three times and added 1×loading buffer and denatured by heating for 5 min at 99 ℃. Then the proteins were resolved on SDS-PAGE, transferred to PVDF membranes and analysed with immunoblotting.

pY705-STAT3 [3] = assay: Immunofluorescence of nuclear pY705-STAT3 in A549 cells; format: cell-based, human; conditions: A549, 3 h treatment
Description: A549 cells were cultured into confocal dishes (Costar, USA). After 24 h, W2014-S was added into dishes. After another 3 h, cells were fixed with 4% paraformaldehyde in PBS for 10 min at room temperature. Then cells were permeabilized with 0.3% Trition X-100 for 5 min at room temperature, following by incubating with primary antibody overnight at 4 ℃. Next, cells were incubated with Alexa-Fluor-conjugated secondary antibodies for 1 h in the dark. The cells were subsequently stained with DAPI (40728ES50, Yeasen, Shanghai, China). Images were captured by Laser Scanning Confocal Microscope FV3000 (Olympus, Japan). Z-stacks were collected with a spacing of 1 μm. Antibody and dilutions used in the studies were: pY705-STAT3 (9145S, Cell Signaling Technology, 1:100), Alexa Fluor 488 Conjugate (1:5000, #4412, Cell signaling Technology, USA). The fluorescence intensity profile along the Z-axis from confocal Z-stacks was shown. The fluorescence intensity of nuclear-localized p-STAT3 was quantified using the confocal software to define the area of the selected region of interest based on the nuclear DAPI signal. Each experiment was done in at least 3 independent experiments.

PC-9 cells [4] = assay: Cell viability assay (CCK-8), PC-9; format: cell-based; conditions: Homo sapiens, PC-9, 72 h, read-out: IC50 cell proliferation
Description: Cell proliferation was measured using the Cell Counting Kit-8 (CCK-8, B34304, Bimake, USA). A549 (2 × 10^3/100 μL/well), PC-9 (3 × 10^3/100 μL/well) or PC-9/GR cells (3 × 10^3/100 μL/well) were plated into each well of 96-well plates (Costar, USA). […] Then, 10 μL of CCK-8 was added to each well, and cells were incubated for 1-4 h until the color of untreated controls turned to orange. The absorbance (A) was measured by a microplate reader (FLUOstar Omega-ACU, USA) at test and reference wavelengths of 450 nm. The percentage of growth was calculated as Cell viability (%) = [A (Compound +) - A (Blank) ] / [A (Compound -) - A (Blank) ] × 100%. Cell viability meant proliferation of cells. Each experiment was done at least in triplicate, and thrice independently.

A549 cells [5] = assay: Transwell cell invasion assay, A549; conditions: A549, 1 μM
Description: Transwell invasion assays were performed as previously reported [37] using Transwell chamber (Costar, USA). […] Data from triplicates experiments were pooled and plotted as shown.

c-Caspase-7 = assay: Western blot of c-Caspase-7 in A549 and PC-9 cells; format: cell-based, human
Description: (§2) Cells or tumor tissue were lysed with RIPA buffer (Beyotime, Shanghai, China) supplemented with protease inhibitors (Beyotime, Shanghai, China) and phosphatase inhibitors (Bimake, USA). Lysates were denatured by heating for 5 min at 99 °C and loaded on 4-10% SDS-polyacrylamide gel electrophoresis. Then the proteins were transferred to polyvinylidene fluoride (PVDF) membranes (Millipore, USA). The membranes were blocked and probed with primary antibodies and secondary HPR-conjugated antibodies. At last the membranes were detected by chemiluminescence (Tanon, Shanghai, China). For co-immunoprecipitation experiments, 293T cells were plated and grew to about 80% confluency, then co-transfected with plasmids of HA-STAT3 and Flag-STAT3 using Lipofectamine 2000. After 24 h, cells were treated with different concentrations of W2014-S for following 24 h, and stimulated with IL-6 (100 ng/mL) for 1 h. Cells were lysed with IP RIPA buffer (Beyotime, Shanghai, China) supplemented with protease inhibitors (Beyotime, Shanghai, China) and phosphatase inhibitors (Bimake, America), and lysates were cultured with Anti-flag Affinity Gel (B23102, Bimake, USA) overnight at 4 ℃. The gel was washed by PBST for three times and added 1×loading buffer and denatured by heating for 5 min at 99 ℃. Then the proteins were resolved on SDS-PAGE, transferred to PVDF membranes and analysed with immunoblotting.

STAT3 = assay: STAT3-dependent dual-luciferase reporter assay in A549 cells; format: cell-based, human; conditions: A549, 0, 0.3, 1 μM, 24 h
Description: The STAT3-dependent luciferase reporter, pGL3-STAT3, contained seven copies of the STAT3-specific binding sequence ([…]) in the C-reactive protein gene promoter, and drove firefly luciferase expression. The new construct was confirmed by sequencing. For luciferase studies, 293T cells or A549 cells in 96-well plates were transiently co-transfected with the appropriate plasmids (10 ng TKRL as internal control vector for normalizing and 50 ng of pGL3-STAT3) using Lipofectamine 2000 (11668500, Invitrogen, Carlsbad, CA, USA) which was following the manufacturer's protocol. After 24 h, HEK-293T cells were treated with 0-1 μM W2014-S for 24 h, and stimulated with IL-6 (100 ng/mL, PeproTech) for 1 h or EGF (50 ng/mL, PeproTech) for 30 min. Subsequently, cytosolic extracts were prepared for dual-luciferase reporter assay.

pY705-STAT3 [6] = assay: Western blot of pY705-STAT3 in A549 cells; format: cell-based, human
Description: as §2

PC-9 cells [7] = assay: Cell apoptosis assay (Annexin V-FITC/PI flow cytometry), PC-9; format: cell-based, human; conditions: PC-9, 1.0 μM, 72 h
Description: as §1

C[C@H](Oc1ccc(-c2nc3nc(C4=CCN(C(=O)OC(C)(C)C)CC4)ccc3[nH]2)cc1)c1ccccc1 [W2014-S]
apoptosis (A549 cells [1]): induced apoptosis
level of pY705-STAT3 and pY1068-EGFR [2]: reduced the phosphorylation of STAT3
accumulation of pY705-STAT3 in the nucleus (pY705-STAT3 [3]): decreased
IC50 (PC-9 cells [4]): 2360 nM
cell invasion (A549 cells [5]): suppressed
cleavage of caspase-7 (c-Caspase-7): induced
STAT3 transcriptional activity (luciferase reporter) (STAT3): inhibited
phosphorylation level of STAT3 (pY705-STAT3 [6]; A549, 0, 1, 3 and 5 μM, 24 h): inhibit the phosphorylation level of STAT3 in a dose dependent manner, and more potent than W2014-R
phosphorylation of STAT3 at Y705, time course (pY705-STAT3 [6]; A549, 1 μM, 0-24 h): inhibited after 1 h treatment
apoptosis (PC-9 cells [7]): induced apoptosis
